Laboratory results reported in US11925662B2, “Compositions and methods of enhancing anti-tumor response using hybrid neutrophils” (THE TRUSTEES OF THE UNIVERSITY OF PENNSYLVANIA, priority 2015, dated 2024).

How the values were obtained:
human Ikaros proteins = details: literature (Kronke et al., 2014); cited from earlier work
[1] = system: bone marrow neutrophils (BMNs); assay: Differentiation of BMNs into HLA-DR+CD14+ hybrid neutrophils (flow cytometry); assay type: cell-based, human; details: for induction of the CD14+HLA-DR+ hybrid phenotype in BMNs: single factor at the low concentrations found in the TCMs
Description: Generation of BM-Derived Hybrid and Canonical Neutrophils. To differentiate BMNs into cells that resemble canonical TANs, purified long-lived BMNs were cultured for 7 days with a TCM (50% v/v) collected from a patient's tumor digest where a large number of hybrid TANs were previously unable to be identified by flow cytometry. […] Alternatively, hybrid-neutrophils were differentiated from BMNs with low doses IFN-γ (50 pg/ml) and GM-CSF (50 pg/ml) for 7 days. If it was observed that the formation of hybrid BMNs was less than 80% the HLA-DR+CD14+ hybrid cells from TCM treated BMNs were enriched by positive selection using magnetic beads coated with anti-HLA-DR antibodies or by flow cytometric cell sorting. The proliferation of BMNs during the differentiation was assessed by flow cytometry using BrdU Flow Kit (BD Pharmingen). BMNs were exposed to bromo-deoxyuridine for 6 hours.
To test the effect of hypoxia on hybrid neutrophil formation, BMNs were cultured for 6 days under normoxic and hypoxic culture conditions maintained in a 37° C. incubator containing 5% CO2, and either atmospheric 21% O2 or 5% O2 condition (Hypoxia Incubator Chamber, Stemcell Techology). BMNs were also cultured in the presence of hybrid-inducing TCM and cobalt chloride (25 μM) (MP Biomedicals LLC), an agent that induces the hypoxia-inducible factor-1α, the main transcriptional factor activated in hypoxic conditions.
Flow Cytometry. Flow cytometric analysis was performed according to standard protocols. Negative gating was based on a fluorescence minus one (FMO) strategy. To exclude dead cells from analysis, cells were stained with the Fixable Viability Dye eFluor® 450 (ebioscience), LIVE/DEAD® fixable dead cell stains (Molecular probes, Life Technologies), or Zombie Yellow™ Fixable Viability dye (Biolegend). To distinguish early-stage apoptotic and late-stage apoptotic/necrotic cells, cells were first stained with Fixable Viability Dye eFluor® 660 (eBioscience). Then cells were washed with the AnnexinV-Binding Buffer and stained with anti-AnnexinV Abs (FITC) in the AnnexinV-Binding Buffer for 10 min at RT. Cells were washed and analyzed by flow cytometry.
(§1) For phenotypic and functional analysis PBNs, BMNs, and TANs were gated on live CD11b^+CD15^hiCD66b^+ cells. […] All data were acquired using the BD FACSCalibur or BD LSRFortessa™ (BD Bioscience) flow cytometers and analyzed using FlowJo software (TreeStar Inc.).

PD-L1 = PD-L1 expression on HLA-DR+ BMNs (flow cytometry); assay type: cell-based, human; details: IFN-γ at more than 1 ng/ml, with GM-CSF 50 pg/ml
Excerpt: FIGS. 16A-16F are a series of graphs showing tumor-derived IFN-γ and GM-SCF synergistically differentiate immature neutrophils into a subset of APC-like hybrid neutrophils. […] FIGS. 16E-16F show levels of IFN-γ (FIG. 16E) and GM-CSF (FIG. 16F) in supernatants collected from the cell culture of small-sized tumor digests where APC-like hybrid TANs were or were not previously detected (set-off was >10% among all TANs) (line represents mean±SEM, n=10, Mann-Whitney test for unpaired data). Lower panels represent the correlation between the absolute levels of IFN-γ and GM-CSF in the TCM, with the frequency of hybrid neutrophils in each tumor shown in the upper graphs. Non-parametric Spearman test was used to determine the degree of correlation. Representative dot plots from one of five experiments are shown in (FIG. 16A-16D).
as §1

## Nc1cccc2c1CN(C1CCC(=O)NC1=O)C2=O (stereo not drawn) [lenalidomide]
Human Ikaros proteins
  effect on Ikaros proteins: causes proteasomal degradation of the human Ikaros proteins
[1]; lenalidomide added to BM neutrophils treated with hybrid-inducing TCM (30% v/v), 6 days
  development of HLA-DR+CD14+ hybrid neutrophils: dramatically facilitated

## IFN-γ: Human recombinant IFN-γ purchased from PeproTech
[1]
  induction of the CD14+HLA-DR+ hybrid phenotype in BMNs: able to induce the phenotype, although in a relatively low percentage of cells
PD-L1
  expression of PD-L1 on the HLA-DR+ BMNs: gradually induced the expression of PD-L1

## [Cl][Co][Cl] [cobalt chloride]
[1]; with hybrid-inducing TCM, cobalt chloride 25 μM (hypoxia-simulating), 6 days
  development of hybrid CD14+HLA-DR+ neutrophils: profoundly inhibited

## GM-CSF: Human recombinant GM-CSF purchased from PeproTech
[1]
  induction of the CD14+HLA-DR+ hybrid phenotype in BMNs: able to induce the phenotype, although in a relatively low percentage of cells
